Source: the NIST ThermoML archive (doi:10.1016/j.jct.2016.07.040)
Numbers after ± are expanded uncertainties.

Settings: Crystal; for vapor or sublimation pressure: Calculated from knudsen effusion weight loss

[Np+4].[O-2].[O-2] [neptunium(IV) oxide]
Settings | mass density [kg/m3]
295 K, 101.33 kPa, X-ray diffraction | 11140 ± 50

Settings | vapor or sublimation pressure [kPa]
2054.9 K | 3.295e-05 ± 1.5e-05
2056.2 K | 3.366e-05 ± 1.5e-05
2057.9 K | 3.51e-05 ± 1.6e-05
2060.1 K | 3.662e-05 ± 1.6e-05
2062.3 K | 3.796e-05 ± 1.7e-05
2064.8 K | 3.874e-05 ± 1.7e-05
2067.1 K | 4.025e-05 ± 1.8e-05
2069.1 K | 4.246e-05 ± 1.8e-05
2071.4 K | 4.393e-05 ± 1.9e-05
2073.9 K | 4.623e-05 ± 1.9e-05
2076.6 K | 4.712e-05 ± 1.8e-05
2078.6 K | 4.956e-05 ± 1.9e-05
2081.3 K | 5.123e-05 ± 1.9e-05
2083.9 K | 5.383e-05 ± 2e-05
2086.1 K | 5.495e-05 ± 2.1e-05
2088.4 K | 5.784e-05 ± 2.2e-05
2090.9 K | 5.955e-05 ± 2.2e-05
2093.2 K | 6.187e-05 ± 2.3e-05
2095.7 K | 6.433e-05 ± 2.4e-05
2098.6 K | 6.692e-05 ± 2.5e-05
2100.8 K | 6.877e-05 ± 2.5e-05
2103.4 K | 7.176e-05 ± 2.6e-05
2105.9 K | 7.462e-05 ± 2.8e-05
2108.1 K | 7.729e-05 ± 2.9e-05
2111.2 K | 8.054e-05 ± 3e-05
2113.1 K | 8.434e-05 ± 3.1e-05
2115.9 K | 8.748e-05 ± 3.3e-05
2118.1 K | 9.035e-05 ± 3.3e-05
2120.3 K | 9.314e-05 ± 3.4e-05
2122.9 K | 9.644e-05 ± 3.5e-05
2125.2 K | 9.94e-05 ± 3.6e-05
2127.9 K | 0.0001045 ± 3.8e-05
2130.5 K | 0.0001097 ± 3.9e-05
2132.7 K | 0.0001123 ± 4.1e-05
2135.3 K | 0.0001157 ± 4.2e-05
2137.4 K | 0.0001217 ± 4e-05
2139.9 K | 0.0001239 ± 4e-05
2142.7 K | 0.0001288 ± 4.1e-05
2145.2 K | 0.0001332 ± 4.3e-05
2147.5 K | 0.0001386 ± 4.5e-05
2149.8 K | 0.0001358 ± 5.7e-05
2150.2 K | 0.0001442 ± 4.6e-05
2151.3 K | 0.0001375 ± 5.7e-05
2152.2 K | 0.0001394 ± 5.6e-05
2152.6 K | 0.0001498 ± 4.7e-05
2152.8 K | 0.0001433 ± 5.4e-05
2154.4 K | 0.0001447 ± 6e-05
2154.9 K | 0.0001542 ± 4.9e-05
2155.9 K | 0.0001583 ± 5.2e-05
2156 K | 0.0001482 ± 6.2e-05
2157.3 K | 0.0001517 ± 6e-05
2158.4 K | 0.0001543 ± 6.1e-05
2160.3 K | 0.0001598 ± 6.7e-05
2161.7 K | 0.0001597 ± 6.7e-05
2162.9 K | 0.0001642 ± 6.7e-05
2164.5 K | 0.0001713 ± 6.7e-05
2166.2 K | 0.0001748 ± 6.7e-05
2167.4 K | 0.000178 ± 6.8e-05
2168.5 K | 0.0001787 ± 7.1e-05
2170.6 K | 0.0001874 ± 6.8e-05
2172.1 K | 0.0001888 ± 6.8e-05
2173.8 K | 0.0001909 ± 6.9e-05
2175.3 K | 0.0001994 ± 7.1e-05
2176.6 K | 0.0002036 ± 7.3e-05
2178.6 K | 0.0002068 ± 7.3e-05
2179.8 K | 0.0002135 ± 7.6e-05
2181 K | 0.0002199 ± 7.8e-05
2183.2 K | 0.0002228 ± 7.9e-05
2184.5 K | 0.0002278 ± 7.9e-05
2186.2 K | 0.0002338 ± 7.9e-05
2187.7 K | 0.0002364 ± 8.2e-05
2189.2 K | 0.0002417 ± 8.3e-05
2191.4 K | 0.0002525 ± 8.7e-05
2193.1 K | 0.0002543 ± 8.8e-05
2194.3 K | 0.0002622 ± 9.1e-05
2196 K | 0.0002656 ± 9.1e-05
2197.8 K | 0.0002726 ± 9.3e-05
2199.7 K | 0.0002771 ± 9.7e-05
2200.8 K | 0.0002867 ± 9.8e-05
2202.4 K | 0.0002946 ± 9.8e-05
2204.7 K | 0.0002992 ± 0.0001
2206.6 K | 0.0003045 ± 0.0001
2207.4 K | 0.0003104 ± 0.0001
2209.3 K | 0.0003162 ± 0.00011
2211.2 K | 0.0003286 ± 0.00011
2212.7 K | 0.0003354 ± 0.00011
2214.4 K | 0.0003408 ± 0.00011
2216.4 K | 0.0003502 ± 0.00012
2218.1 K | 0.0003597 ± 0.00012
2218.9 K | 0.0003644 ± 0.00012
2220.7 K | 0.0003741 ± 0.00013
2222.9 K | 0.0003833 ± 0.00013
2224.6 K | 0.0003931 ± 0.00013
2225.9 K | 0.0004013 ± 0.00013
2227.7 K | 0.000407 ± 0.00014
2229.2 K | 0.0004206 ± 0.00014
2231 K | 0.0004254 ± 0.00014
2232.9 K | 0.0004344 ± 0.00014
2233.8 K | 0.0004466 ± 0.00015
2235.8 K | 0.0004515 ± 0.00015
2237.8 K | 0.0004628 ± 0.00015
2239.3 K | 0.0004711 ± 0.00014
2240.7 K | 0.0004792 ± 0.00014
2242.2 K | 0.0004974 ± 0.00015
2243.7 K | 0.0005095 ± 0.00016
2245.8 K | 0.0005148 ± 0.00016
2247.3 K | 0.0005247 ± 0.00016
2249.2 K | 0.00054 ± 0.00017
2250.6 K | 0.0005507 ± 0.00017
2252.1 K | 0.0005593 ± 0.00017
2254.2 K | 0.0005708 ± 0.00017
2255.6 K | 0.0005856 ± 0.00017
2257.4 K | 0.0005944 ± 0.00018
2258.3 K | 0.0006052 ± 0.00019
2258.7 K | 0.0006098 ± 0.00019
2259.2 K | 0.0006132 ± 0.00019
